According to patent US6943196B1, “NF-κB inhibitor comprising phenylmethyl benzoquinone as the active ingredient” (Daiichi Suntory Pharma Co., Ltd., priority 1998, dated 2005):

Tests used:
[1] = tested on: NO production; test: NO production of LPS-stimulated RAW264.7 cells (Griess' method); format: cell-based; conditions: Mus musculus, LPS (10 μg/ml), NO in culture medium after 24 hours
Description: (§1) When various cells are stimulated with LPS, NF-κB is activated which results in the expression and induction of proteins represented by […] and TNF-α, and thereby the cells start to produce NO and TNF-α.
The Griess' method utilizing a diazo reaction has been known as a method for indirectly knowing that a cell actually produces NO. In the Griess' method, the Griess' reagent in which naphthylethylenediamine and sulfanilic acid have been mixed is reacted with NO2 ion in the culture medium, and the color development thereof is measured by absorbance at 540 nm. The amount of NO accumulated in the cell culture medium after 24 hours was measured in this method with a result that the production of NO released from LPS (10 μg/ml)-stimulated RAW264.7 cells (ATCC, TIB-71) derived from macrophage is suppressed by the compound obtained in Example 4 (FIG. 4A).
(§2) The inhibitory activity of the compounds shown in the Examples is expressed as an IC50 value.

[2] = tested on: TNF-α production; test: TNF-α production of LPS-stimulated RAW264.7 cells (ELISA); format: cell-based; conditions: Mus musculus, LPS (10 μg/ml) for 4 hours
Description: as §1, §2

Row | IC50 [1] [µM] | IC50 [2] [µM] | SMILES
1 | 21 | 21 | COC1=C(OC)C(=O)C(Cc2ccc(CCC(=O)N3CCSCC3)cc2)=C(C)C1=O [Example 4, N-[3-[4-(5,6-dimethoxy-3-methyl-1,4-benzoquinon-2-ylmethyl)phenyl]propionyl]thiomorpholine]
2 | 15 | 22 | COC1=C(OC)C(=O)C(Cc2ccc(CCC(=O)N3CCCCC3)cc2)=C(C)C1=O [Example 7, N-[3-[4-(5,6-dimethoxy-3-methyl-1,4-benzoquinon-2-ylmethyl)phenyl]propionyl]piperidine]
3 | 10 | 16 | COC1=C(OC)C(=O)C(Cc2ccc(CCC(=O)NC(C)C)cc2)=C(C)C1=O [Example 9, N-[3-[4-(5,6-dimethoxy-3-methyl-1,4-benzoquinon-2-ylmethyl)phenyl]propionyl]isopropylamine]
4 | 19 | 19 | COC1=C(OC)C(=O)C(Cc2cccc(CCC(=O)NC(C)C)c2)=C(C)C1=O [Example 35, N-[3-[3-(5,6-dimethoxy-3-methyl-1,4-benzoquinon-2-ylmethyl)phenyl]propioyl]isopropylamine]
5 | 19 | 19 | COC1=C(OC)C(=O)C(Cc2ccc(CC(=O)N3CCOCC3)cc2)=C(C)C1=O [Example 53, N-[4-(5,6-dimethoxy-3-methyl-1,4-benzoquinon-2-ylmethyl)phenylacetyl]morpholine]
6 | 13 | 13 | COC1=C(OC)C(=O)C(Cc2ccc(CCC(=O)N3CCC(C)CC3)cc2)=C(C)C1=O [Example 81]
7 | 6 | 9 | COC1=C(OC)C(=O)C(Cc2ccc(CCC(=O)N3CCCCC3C)cc2)=C(C)C1=O (stereo not shown) [Example 83]
8 | 21 | 26 | COC1=C(OC)C(=O)C(Cc2ccc(CCC(=O)N3CCCC(C)C3)cc2)=C(C)C1=O (stereo not shown) [Example 85]
9 | 9 | 11 | COC1=C(OC)C(=O)C(Cc2ccc(CCC(=O)Nc3ccc(OC)cc3)cc2)=C(C)C1=O [Example 94]
10 | 31 | 31 | COC1=C(OC)C(=O)C(Cc2ccc(CCC(=O)Nc3ccc(OC)c(OC)c3)cc2)=C(C)C1=O [Example 103]
11 | 17 | 25 | COC1=C(OC)C(=O)C(Cc2ccc(CCC(=O)N3CCC[C@H]3C(N)=O)cc2)=C(C)C1=O [Example 106]
12 | 7 | 11 | COC1=C(OC)C(=O)C(Cc2ccc(CCC(=O)N[C@@H](C)c3ccccc3)cc2)=C(C)C1=O [Example 120]
13 | 20 | 20 | COC1=C(OC)C(=O)C(Cc2ccc(CCC(=O)N3CC(C)CC(C)C3)cc2)=C(C)C1=O (stereo not shown) [Example 137]
14 | 17 | 17 | COC1=C(OC)C(=O)C(Cc2ccc(CCC(=O)N3CCC(C(C)=O)(c4ccccc4)CC3)cc2)=C(C)C1=O [Example 168]
